This data set can be described thus: Hygroscopicity: water content of crystals after storage in dessicator. The format is physicochemical. The note with it: after 24 hours inside a dessicator at 60° C. and humidity of 100%. As for the experimental part: For example, Aripiprazole Anhydride Crystals B of the present invention maintain a water content of 0.4% or less after 24 hours inside a dessicator set at a temperature of 60° C. and a humidity of 100%.
Well-known methods of measuring water content can be used as long as they are methods commonly used for measuring the water content of crystals. For example, a method such as the Karl Fischer method can be used.

The compound `O=C1CCc2ccc(OCCCCN3CCN(c4cccc(Cl)c4Cl)CC3)cc2N1` [Aripiprazole Anhydride Crystals B, aripiprazole] registered a water content not above 0.4%.

Source of the values: patent US9358207B2, “Flashmelt oral dosage formulation” (OTSUKA PHARMACEUTICAL CO., LTD., priority 2000, dated 2016).
